Source: ChEMBL document CHEMBL4411335, “Identification and Optimization of Novel Small c-Abl Kinase Activators Using Fragment and HTS Methodologies” (J Med Chem, 2019)
Converted amounts (≈) assume the structure as drawn.

What was measured:
[1] = Kinetic solubility of the compound at pH 7.4 after 1 hr by CLND-based assay; type: physicochemical; conditions: buffer, read-out: Kinetic_solubility
[2] = Permeability of the compound at […] after 3 hrs by artificial membrane permeability assay; type: ADME; conditions: PAMPA; read-out: permeability
[3] = biological target: Tyrosine-protein kinase ABL1 (Homo sapiens, UniProt P00519, D382N); experiment: Displacement of Myr-GQQPGKVLGDQRRPSL(K-TAMRA)G-amide from N-terminal-truncated human c-ABL D382N mutant (46 to 534 residues) after 30 mins by fluorescence polarization binding assay
[4] = biological target: T1, Tyrosine-protein kinase ABL1 (Homo sapiens, UniProt P00519); experiment: Induction of human c-ABL phosphorylation at Y245/Y412 residues in bacmam-induced HEK-MSR2 cell lysates by in-cell Western blot analysis; type: subcellular, Lysate
[5] = biological target: T1, Tyrosine-protein kinase ABL1; experiment: Activation of full length human 6His-tagged c-Abl expressed in baculovirus expression system using abltide as substrate after 2 hrs by IMAP assay; conditions: for EC50 for c-Abl activation: read-out: pIC50 (converted)

T1 sequence (P00519 whole entry): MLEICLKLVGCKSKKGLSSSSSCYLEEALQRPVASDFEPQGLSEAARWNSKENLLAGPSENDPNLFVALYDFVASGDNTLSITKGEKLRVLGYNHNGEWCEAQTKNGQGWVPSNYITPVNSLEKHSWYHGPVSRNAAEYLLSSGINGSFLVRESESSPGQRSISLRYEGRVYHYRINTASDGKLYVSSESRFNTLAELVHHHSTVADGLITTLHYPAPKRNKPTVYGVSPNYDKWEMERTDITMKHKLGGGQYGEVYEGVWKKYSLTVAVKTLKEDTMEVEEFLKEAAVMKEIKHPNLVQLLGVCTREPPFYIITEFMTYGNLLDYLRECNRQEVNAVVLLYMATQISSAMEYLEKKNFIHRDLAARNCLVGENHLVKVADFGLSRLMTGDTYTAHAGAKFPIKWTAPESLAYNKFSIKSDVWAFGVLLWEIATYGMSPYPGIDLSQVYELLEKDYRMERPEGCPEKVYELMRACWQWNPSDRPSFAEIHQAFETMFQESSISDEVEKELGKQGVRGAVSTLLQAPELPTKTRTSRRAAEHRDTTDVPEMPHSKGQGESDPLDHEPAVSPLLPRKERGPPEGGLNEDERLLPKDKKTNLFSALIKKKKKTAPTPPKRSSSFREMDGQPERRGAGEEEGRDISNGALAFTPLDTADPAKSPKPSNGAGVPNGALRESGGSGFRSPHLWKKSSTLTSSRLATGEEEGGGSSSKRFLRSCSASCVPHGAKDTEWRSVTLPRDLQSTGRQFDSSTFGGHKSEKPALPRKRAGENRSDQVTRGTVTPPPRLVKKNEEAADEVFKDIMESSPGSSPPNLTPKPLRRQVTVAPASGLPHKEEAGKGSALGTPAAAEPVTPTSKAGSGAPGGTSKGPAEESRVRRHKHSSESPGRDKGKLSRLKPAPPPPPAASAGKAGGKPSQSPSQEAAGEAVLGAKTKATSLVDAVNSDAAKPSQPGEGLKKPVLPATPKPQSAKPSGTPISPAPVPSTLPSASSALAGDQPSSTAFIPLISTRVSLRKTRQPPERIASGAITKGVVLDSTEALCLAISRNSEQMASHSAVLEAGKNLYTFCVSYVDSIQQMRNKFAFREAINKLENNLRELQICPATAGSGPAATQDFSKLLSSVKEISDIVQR
Sequence of Tyrosine-protein kinase ABL1 (Homo sapiens, UniProt P00519, D382N) (P00519 as listed by the source D382N): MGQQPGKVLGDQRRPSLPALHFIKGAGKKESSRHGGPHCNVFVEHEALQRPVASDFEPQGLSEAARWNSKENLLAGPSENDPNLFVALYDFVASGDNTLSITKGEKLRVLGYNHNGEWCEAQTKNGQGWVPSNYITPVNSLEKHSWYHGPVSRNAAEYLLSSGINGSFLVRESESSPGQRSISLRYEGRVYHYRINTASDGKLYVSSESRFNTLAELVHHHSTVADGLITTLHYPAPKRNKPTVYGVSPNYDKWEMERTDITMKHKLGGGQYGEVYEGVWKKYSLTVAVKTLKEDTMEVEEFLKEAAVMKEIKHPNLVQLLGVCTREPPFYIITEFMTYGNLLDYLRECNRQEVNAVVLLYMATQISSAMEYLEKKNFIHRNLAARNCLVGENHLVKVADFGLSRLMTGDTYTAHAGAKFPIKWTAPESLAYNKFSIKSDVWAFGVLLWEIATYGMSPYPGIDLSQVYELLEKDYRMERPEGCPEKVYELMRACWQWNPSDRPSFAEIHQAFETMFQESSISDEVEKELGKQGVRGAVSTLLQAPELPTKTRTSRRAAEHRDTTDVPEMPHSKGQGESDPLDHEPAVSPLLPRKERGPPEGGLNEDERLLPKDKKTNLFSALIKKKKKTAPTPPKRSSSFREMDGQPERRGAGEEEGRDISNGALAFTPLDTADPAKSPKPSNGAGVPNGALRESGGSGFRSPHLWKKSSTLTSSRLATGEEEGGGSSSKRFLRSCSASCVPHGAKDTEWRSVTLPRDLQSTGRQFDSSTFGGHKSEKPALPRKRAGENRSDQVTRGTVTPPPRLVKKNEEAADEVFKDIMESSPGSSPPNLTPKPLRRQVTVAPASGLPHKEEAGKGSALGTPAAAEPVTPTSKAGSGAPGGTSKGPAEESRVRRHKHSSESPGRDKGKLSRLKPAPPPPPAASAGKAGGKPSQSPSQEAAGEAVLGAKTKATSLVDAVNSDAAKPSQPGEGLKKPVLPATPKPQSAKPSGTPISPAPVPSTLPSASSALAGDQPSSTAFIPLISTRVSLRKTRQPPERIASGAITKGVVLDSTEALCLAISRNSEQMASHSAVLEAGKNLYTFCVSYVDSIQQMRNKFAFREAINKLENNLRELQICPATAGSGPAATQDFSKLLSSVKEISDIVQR

| Compound | solubility kinetic at 1 h [1] | Papp at 3 h [2] | IC50 [3] | EC50 [4] | EC50 for c-Abl activation [5] | EC50 [5] |
| --- | --- | --- | --- | --- | --- | --- |
| O=C1NC(=O)C(c2cn(-c3ccccc3)nc2-c2ccc(F)cc2)N1 (stereo unspecified) | > 395 µM | 35 ×10⁻⁶ cm/s | 398 nM | 794 nM | – | – |
| CC(=O)Nc1nc(-c2ccc(Br)s2)cs1 | 16 µM (≈ 4.85 µg/mL) | 21 ×10⁻⁶ cm/s | 5010 nM | > 50100 nM | 12600 nM | – |
| CC(=O)Nc1nc(-c2ccc(Cl)cc2)cs1 | 1 µM (≈ 0.253 µg/mL) | 25 ×10⁻⁶ cm/s | 10000 nM | – | 31600 nM | – |
| CC(=O)Nc1nc(-c2cccc(O)c2)cs1 | 103 µM (≈ 24.1 µg/mL) | 27 ×10⁻⁶ cm/s | 12600 nM | – | > 50100 nM | – |
| O=C(NC1=NN(c2ccc(Cl)c(Cl)c2)CC1)c1ccccn1 | 11 µM (≈ 3.69 µg/mL) | 35 ×10⁻⁶ cm/s | 2000 nM | > 50100 nM | 2000 nM | – |
| N#CCC(=O)NC1=NN(c2ccc(Cl)c(Cl)c2)CC1 | 202 µM (≈ 60 µg/mL) | 32 ×10⁻⁶ cm/s | 398 nM | 1000 nM | 251 nM | – |
| Cc1ncncc1C(=O)NC1=NN(c2ccc(Cl)c(Cl)c2)CC1 | 12 µM (≈ 4.2 µg/mL) | 34 ×10⁻⁶ cm/s | 158 nM | 316 nM | 39.8 nM | – |
| C[C@H]1CN(c2ccc(Cl)c(Cl)c2)N=C1NC(=O)c1cncnc1 | 9 µM (≈ 3.15 µg/mL) | 42 ×10⁻⁶ cm/s | 316 nM | 100 nM | 20 nM | – |
| O=C(Nc1nc(-c2ccc(Cl)c(Cl)c2)cs1)c1c(F)cccc1F | 5 µM (≈ 1.93 µg/mL) | < 3 ×10⁻⁶ cm/s | 316 nM | 5010 nM | 251 nM | – |
| CC(=O)N[C@@H](C)C(=O)NC1=NN(c2ccc(Cl)c(Cl)c2)CC1 | 58 µM (≈ 19.9 µg/mL) | 34 ×10⁻⁶ cm/s | 1260 nM | 7940 nM | 1580 nM | – |
| CS(=O)(=O)Nc1nc(-c2ccc(Cl)c(Cl)c2)cs1 | 429 µM (≈ 139 µg/mL) | 22 ×10⁻⁶ cm/s | > 50100 nM | > 50100 nM | 25100 nM | – |
| O=C(NC1=NN(c2ccc(Cl)c(Cl)c2)CC1)c1ccncc1F | 36 µM (≈ 12.7 µg/mL) | 28 ×10⁻⁶ cm/s | 200 nM | 1580 nM | 126 nM | – |
| O=C(NC1=NN(c2ccc(Cl)c(Cl)c2)CC1)c1cccnn1 | 67 µM (≈ 22.5 µg/mL) | – | 794 nM | > 50100 nM | 5010 nM | – |
| NC1=NN(c2ccc(Cl)c(Cl)c2)CC1 | 69 µM (≈ 15.9 µg/mL) | 32 ×10⁻⁶ cm/s | 2000 nM | 12600 nM | 6310 nM | – |
| O=C1CCCC(C(=O)NC2=NN(c3ccc(Cl)c(Cl)c3)CC2)N1 (stereo unspecified) | 416 µM (≈ 148 µg/mL) | 25 ×10⁻⁶ cm/s | 501 nM | 2510 nM | 398 nM | – |
| Cn1cnnc1SCC(=O)Nc1nc(-c2ccc(Cl)c(Cl)c2)cs1 | – | – | 794 nM | 20000 nM | – | 10000 nM |
| Cn1ncc([N+](=O)[O-])c1C(=O)Nc1nc(-c2ccc(Cl)c(Cl)c2)cs1 | < 1 µM | 26 ×10⁻⁶ cm/s | 200 nM | 15800 nM | 31.6 nM | – |
| N#CCC(=O)Nc1cc(-c2ccc(Cl)c(Cl)c2)cs1 | 12 µM (≈ 3.73 µg/mL) | 19 ×10⁻⁶ cm/s | 3980 nM | 20000 nM | 3160 nM | – |
| N#CCC(=O)Nc1csc(-c2ccc(Cl)c(Cl)c2)c1 | 10 µM (≈ 3.11 µg/mL) | 12 ×10⁻⁶ cm/s | 3980 nM | > 50100 nM | 15800 nM | – |
| CC(=O)NC1=NN(c2ccc(Cl)c(Cl)c2)C[C@H]1C | 36 µM (≈ 10.3 µg/mL) | 38 ×10⁻⁶ cm/s | 3980 nM | 20000 nM | – | – |
| CC(=O)NC1=NN(c2ccc(Cl)c(Cl)c2)[C@@H](C)C1 | 125 µM (≈ 35.8 µg/mL) | 42 ×10⁻⁶ cm/s | 398 nM | 10000 nM | 501 nM | – |
| O=C(Nc1nc(-c2ccc(Cl)c(Cl)c2)cs1)C1CC1 | 3 µM (≈ 0.94 µg/mL) | 22.7 ×10⁻⁶ cm/s | 251 nM | > 50100 nM | 158 nM | – |
| O=C(NC1=NN(c2ccc(Cl)c(Cl)c2)CC1)c1c(F)cccc1F | – | – | 398 nM | 3160 nM | 631 nM | – |
| CC(=O)Nc1nc(-c2cc(Cl)c(Cl)s2)cs1 | 1 µM (≈ 0.293 µg/mL) | 28 ×10⁻⁶ cm/s | 6310 nM | > 50100 nM | > 100000 nM | – |
| CC(=O)Nc1nc(-c2ccc(F)c(Cl)c2)cs1 | 10 µM (≈ 2.71 µg/mL) | 9.4 ×10⁻⁶ cm/s | 2510 nM | > 50100 nM | 39800 nM | – |
